Assay results from US8492341B2, “Amyloid-β binding peptides” (Alzyme Pty Ltd., priority 2006, dated 2013).
Square brackets hold non-standard residues; d marks the D form.

Assays:
[1] = biological target: Aβ (Homo sapiens, UniProt P05067); assay: Copper-induced Aβ oligomer generation (SDS-PAGE, WO2 immunoblot); type: biochemical; conditions: Aβ 5 uM, Cu+2 25 μM, 0-1000 μM peptide, 37 C, 24 hours; vs reverse peptide control
Description: Incubation of Aβ with copper generates cross-linked oligomeric species (Atwood et al., 2000: Cell Mol Biol, 46: 777-783; Atwood et al., 2004: Biochemistry, 43: 560-568). In this experiment, Aβ (5 uM) is incubated with Cu+2 (25 μM) and 0-1000 μM of the modified peptides at 37 C for 24 hours. After the incubation period, 20 ng is loaded onto an SDS-PAGE gel and immunoblotted with WO2 antibody. Compared to the reverse peptide control, all the modified peptides inhibited the generation of Aβ oligomers at various concentration.

[2] = test system: human Aβ42; assay: MTS cell viability assay of MP2 analogues, cells treated with human Aβ42 (20 μM); type: cell-based; conditions: peptide 400 μM
Description: FIG. 7 illustrates the effect of various peptide analogues of the peptide analogue of SEQ ID NO:2 on cell viability associated with human Aβ1-42. Cells were treated with human Aβ42 peptide (20 μM) in the absence or presence of increasing doses of MP2, MP4, MP5 or MP6 (n=6, for each peptide). Cell viability was assessed by the MTS assay.
Cells were treated with human Aβ42 peptide (20 μM) in the absence or presence of increasing doses of MP2, MP4, MP5 or MP6 (n=6, for each peptide). Cell viability was assessed by the MTS assay.

[3] = test system: M17 Neuroblastoma cells; assay: MTS cell viability assay, cell death induced by human Aβ1-42 (40 μM); type: cell-based; conditions: for reduction of cell death associated with human Aβ1-42: Aβ1-42 40 μM
Description: M17 Neuroblastoma cells were seeded in a 48 well plate at a density of 50,000 cells per well. The plate was incubated for 24 hours at 37° C. in media (OPTI-MEM) containing 10% FCS. The next day the cells were treated with human Aβ1-42 (40 μM) in the presence or absence of the peptides 15merTNP or peptide analogue MP2 (FIG. 2). The peptides were provided at concentrations ranging from 20-400 μM prepared in Neuro basal media containing B27 supplement without antioxidants. Following incubation (4 days at 37° C.), cell viability was assessed using the CellTiter 96® AQueous One Solution cell proliferation assay (MTS; Promega, Wis., USA) as per manufactures instructions. Briefly, 200 μl of MTS reagent (1/10 dilution) was added directly to the culture wells and the plate incubated for 3 hours at 37° C. Following incubation, 150 μl of the solution was transferred to a 96 well plate and the absorbance is determined spectrophotometrically at 490 nm.
Similar to the MTT assay, the MTS assay is a colorimetric method for determining the number of viable cells in proliferation or cytotoxicity assays. The principle of the MTS assay is the same as the MTT assay, except for the tetrazolium compound that is bio-reduced by the mitochondria of the cells, forming a coloured formazan product that is soluble (rather than insoluble for the MTT assay) in tissue culture medium. This conversion is accomplished by NADPH or NADH produced by dehydrogenase enzymes in metabolically active cells: Berridge M V. And Tan A. S. (1993) Characterisation of the cellular reduction of 3-(4,5-dimethylthiazol-2-yl)-2,5-diphenyltetrazolium bromide (MTT): Subcellular localisation, substrate dependence and involvement of mitochondrial electron transport in MTT reduction. Arch. Biochem. Biophys. 303, 474-82.
The effect of human Aβ1-42 (40 μM) on cell viability was determined in triplicate in each of the 10 MTS assays (i.e. n=30) performed in this study. All data are presented as means±SEM.
The effect of peptide analogue MP2 to protect against human Aβ42-induced toxicity was then determined using the MTS assay in triplicate in two separate experiments for all doses (i.e. n=6), unless otherwise specified. The effectiveness of MP2 was compared against the 15merTNP.

[4] = biological target: T1, human Aβ1-42 (Homo sapiens, UniProt P05067); conditions: DCF fluorescence assay, 200 nM human Aβ1-42; earlier work PCT/AU02/01754; cited from earlier work
T1 construct: The effect of MP2 on H2O2 production by human Aβ1-42 was determined in triplicate

[5] = design: species or system mice (129×1 strain); conditions: mouse, in vivo
Description: Another essential requirement of drug development is the ability of the peptide to cross the BBB and impact on targeted tissue. To measure the ability of 15merTNP and peptide analogue MP2 to cross the BBB, intracerebroventricular (i.c.v) delivery was assessed. The use of i.c.v injections on animal models allows for high doses to be delivered straight to the ventricular spaces where it can cross the parenchyma layer to the brain matter.
For i.c.v injections, control mice (129×1 strain) were anesthetized with intraperitoneal ketamine/xylazine at a dose of 10 ml/kg and then administered with 200 μg of either peptide (90 nmol). Both radioactive (^3H-labelled; hot) and non-radioactive (cold) was used to allow physiological doses of peptide to be delivered.
To determine whether the peptides had effectively penetrated into the brain parenchyma, a capillary depletion experiment was performed. After 25 min post injection the animal was sacrificed and the brain removed. This was homogenized and centrifuged for 10 min at 13000 rpm at 4° C. resulting in a supernatant containing predominately radioactivity from the cortex and a pellet with radioactivity from the capillaries and endothelium. A comparison of radioactivity in each sample was conducted to assess percentage of peptide movement into the cortex. The amount of radioactivity in the capillary pellet of mice that were perfused and not perfused with saline solution was compared to determine the percentage of peptide bound to the luminal surface of the capillaries and sequestered by brain endothelial cells.
A detailed necropsy was performed on each animal following perfusion to thoroughly assess peptide movement throughout peripheral organs, central nervous tissue and blood. […] Thus the concentration of labelled tritium could be measured per mass of sample and using this and the known ratio of non-labelled peptide present, the concentration of total peptide could be determined.
The pharmacokinetic profile of peptide analogue MP2 over four time points, post i.c.v injection into the CNS was determined. […]

[6] = biological target: T1, human Aβ1-42; assay: DCF fluorescence assay of H2O2 production (SOD-like activity) by human Aβ1-42; type: biochemical; conditions: 200 nM peptide, Aβ1-42 200 nM
Description: The three candidate peptides (15merTNP, 6merPLP and 6merMTM) were examined to determine whether they could attenuate Aβ's SOD-like activity in vitro. A DCF fluorescence assay was used to assess the efficacy of these peptides on altering the production of physiological (brain) concentrations (200 nM) of human Aβ1-42.
Aβ species were prepared and the assay run as described previously (i.e. Aβ1-42 at 200 nM and Copper and Dopamine concentrations remain unchanged). Peptide analogue MP2 (SEQ ID NO:2) was added to Aβ1-42+Cu solutions at ratios ranging from 0.005:1 to 10.0:1 (i.e. a ration of 0.005:1 would contain 1 nM of respective peptide). The peptide was dissolved in PBS pH7.5. The effect of MP2 on H2O2 production by human Aβ1-42 was determined in triplicate in three separate experiments (i.e. n=9) for doses ranging from 100 to 2000 nM (FIG. 1). These were compared against the level of H2O2 produced by human Aβ1-42 [test peptide analogue MP2+positive control peptide 15merTNP; three experiments done in triplicate, […]]. All data are presented as means±SEM.
For all assays run, the 15merTNP peptide (SEQ ID NO: 3), was included as a positive control for the assay and for comparing its activity with that of the modelled peptide analogue MP2. The effect of 15merTNP (200 nM) on H2O2 production by human Aβ1-42, was determined in triplicate in each of the 12 DCF assays (i.e. n=36) performed in this study.

[7] = In vitro peptide stability in 10% rodent brain homogenate; type: in vitro ADME, rat; conditions: 10% brain homogenate, 37° C.
Description: For the peptide stability assay in vitro, both 15merTNP and peptide analogue MP2 were incubated separately with fresh 10% rodent brain homogenate to model degradation in tissues. In order to create a physiological dose of peptide in the in vitro assay, both radioactive (^3H-labelled; hot) and non-radioactive (cold) peptides were combined in a set ratio. Cold peptide was added at a dose of […] per ml of 10% brain homogenate. Hot peptide was added at a dose of 250 μCi per ml 10% brain homogenate. Following the addition of hot and cold peptide; the homogenate was vortexed and incubated for different time points. The reaction was stopped by adding complete protease inhibitor cocktail and the samples analysed.
The biological stability of the peptides was evaluated by incubating them (90 nmol) in fresh 10% rodent brain homogenate for different times at 37° C. The amount of intact peptide was estimated by running the supernatant of the homogenate on a 16% Tricine gel to separate peptide that had not had its amino acid sequence degraded. FIG. 3 illustrates the relative stability of 15merTNP and peptide analogue MP2 over two hours run on a 16% Tricine gel from time 0-120 min with samples run in duplicate. The values correspond to the in vitro half-life, which is defined as the time needed for 50% degradation of the peptide.

T1 sequence (P05067 672-713): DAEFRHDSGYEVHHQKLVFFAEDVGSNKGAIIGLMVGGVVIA
Chain of Aβ (P05067 672-713 limits assumed): as the sequence (P05067 672-713) above

Ac-Arg-Thr-Pro-Gln-Met-Leu-Lys-NH2 (Ac-RTPQMLK-NH2) [MP4]
inhibition of Aβ oligomer formation [1]: most potent

Ac-DArg-DLys-DLeu-DMet-DGln-DPro-DThr-DArg-DAsn-NH2 (Ac-[dR][dK][dL][dM][dQ][dP][dT][dR][dN]-NH2; SMILES CSCC[C@@H](NC(=O)[C@@H](CC(C)C)NC(=O)[C@@H](CCCCN)NC(=O)[C@@H](CCCNC(=N)N)NC(C)=O)C(=O)N[C@H](CCC(N)=O)C(=O)N1CCC[C@@H]1C(=O)N[C@@H](C(=O)N[C@H](CCCNC(=N)N)C(=O)N[C@H](CC(N)=O)C(N)=O)[C@H](C)O) [MP6]
cell viability following treatment with human Aβ42 [2]: significantly increased

Ac-Thr-Arg-Thr-Pro-Gln-Met-Leu-Arg-Lys-NH2 (Ac-TRTPQMLRK-NH2) [MP5]
inhibition of Aβ oligomer formation [1]: most potent
cell viability following treatment with human Aβ42 [2]: significantly increased

H-TNPNRRNRTPQMLKR-OH [15merTNP, Thr-Asn-Pro-Asn-Arg-Arg-Asn-Arg-Thr-Pro-Gln-Met-Leu-Lys-Arg, reference compound]
reduction of cell death associated with human Aβ1-42 ([3]; 80 μM peptide): 20%
reduction of cell death associated with human Aβ1-42 ([3]; 200 μM peptide): 30%
ability to modify Aβ1-42's SOD-like activity [4]: possessed the ability to modify Aβ1-42's SOD-like activity
crossing of the blood brain barrier [5]: poorly
reduction of human Aβ1-42's H2O2 production [6]: around 30%
Stability in rat brain homogenate (in vitro half-life) [7]: <45 min
half-life at 2.5 mmol per ml ([7]; rat, fresh 10% brain homogenate): < 45 min

human Aβ1-42: beta amyloid peptide used as toxic agent in the cell viability assays [reference compound]
reduction of cell viability ([3]; human Aβ1-42 40 μM alone, 4 days): ≤ 35%
